Assay results: patent EP4685142A1, “TRIAZINE COMPOUND AND USE THEREOF” (Chengdu Zenitar Biomedical Technology Co., Ltd., priority 2023, dated 2024)

Columns and labels:
NLRP3 inflammasome = molecular target: T1, NLRP3 inflammasome (Homo sapiens, UniProt Q96P20); test: Inhibitory activity of NLRP3 inflammasome in human monocytes (THP-1 cells, LPS + Nigericin, IL-1β ELISA); assay type: cell-based; settings: THP-1 cells, PMA, LPS 1 µg/mL 3 h, drug 40 min, Nigericin 10 µM 40 min, IL-1β ELISA; read-out: IC50
T1 construct: host or cells: THP-1 cells
T1 sequence (Q96P20 whole entry): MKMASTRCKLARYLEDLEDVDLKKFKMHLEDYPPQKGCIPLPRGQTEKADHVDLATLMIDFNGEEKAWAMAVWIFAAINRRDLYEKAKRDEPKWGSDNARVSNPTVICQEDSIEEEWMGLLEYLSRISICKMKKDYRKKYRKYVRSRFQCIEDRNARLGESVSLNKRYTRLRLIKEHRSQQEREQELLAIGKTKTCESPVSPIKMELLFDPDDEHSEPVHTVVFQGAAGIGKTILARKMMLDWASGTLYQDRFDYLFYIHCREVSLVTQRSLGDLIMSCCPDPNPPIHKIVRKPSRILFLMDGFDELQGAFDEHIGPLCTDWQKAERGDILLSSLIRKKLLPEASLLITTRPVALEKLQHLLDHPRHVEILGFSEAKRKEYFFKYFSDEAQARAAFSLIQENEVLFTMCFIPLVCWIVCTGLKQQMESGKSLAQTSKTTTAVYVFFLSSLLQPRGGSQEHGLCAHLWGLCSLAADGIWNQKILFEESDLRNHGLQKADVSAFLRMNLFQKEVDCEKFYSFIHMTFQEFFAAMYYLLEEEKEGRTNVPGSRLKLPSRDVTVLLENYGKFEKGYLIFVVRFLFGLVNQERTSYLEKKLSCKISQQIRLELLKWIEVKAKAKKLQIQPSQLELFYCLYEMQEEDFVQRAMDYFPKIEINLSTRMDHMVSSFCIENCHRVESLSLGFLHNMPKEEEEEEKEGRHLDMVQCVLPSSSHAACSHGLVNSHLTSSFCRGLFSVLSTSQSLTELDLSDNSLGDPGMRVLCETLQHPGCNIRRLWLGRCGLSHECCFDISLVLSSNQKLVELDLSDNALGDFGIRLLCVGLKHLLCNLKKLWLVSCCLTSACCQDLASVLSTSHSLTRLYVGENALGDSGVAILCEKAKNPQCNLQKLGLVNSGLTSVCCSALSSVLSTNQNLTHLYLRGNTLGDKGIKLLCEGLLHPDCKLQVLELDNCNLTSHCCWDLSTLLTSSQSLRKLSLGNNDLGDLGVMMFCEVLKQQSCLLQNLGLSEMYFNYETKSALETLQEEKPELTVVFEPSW
Summary of the method: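 THP-1 cells differentiated overnight with 10 µM PMA at 37°C and 5% CO2, then primed 3 h with 1 µg/mL LPS in Opti-MEM. Compound applied for 40 min, followed by 40 min with 10 µM nigericin. IL-1β in supernatant measured by ELISA.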

[1] = Pharmacokinetic evaluation in Balb/c mice; assay type: in vivo; settings: male, Balb/c, mouse, in vivo, po, 5 mg/kg
LPS-induced mice = test: LPS-induced mouse model, survival; assay type: in vivo, Balb/c mice; settings: for survival status of mice (mice alive) 12h / survival status of mice (mice alive) 24h / survival status of mice (mice alive) 36h / survival status of mice (mice alive) 48h / survival status of mice (mice alive) 72h: 25 mg/kg
human NLRP3 protein = human NLRP3 protein (Homo sapiens, UniProt Q96P20); test: Affinity for human NLRP3 protein (Biacore T200, CM5 chip); assay type: binding; settings: protein immobilized on CM5 chip, 25°C
human NLRP3 protein, sequence (Q96P20 whole entry): as above

[2] = molecular target: T2, hERG potassium ion channel (Homo sapiens, UniProt Q12809); settings: human
T2 sequence (Q12809 whole entry): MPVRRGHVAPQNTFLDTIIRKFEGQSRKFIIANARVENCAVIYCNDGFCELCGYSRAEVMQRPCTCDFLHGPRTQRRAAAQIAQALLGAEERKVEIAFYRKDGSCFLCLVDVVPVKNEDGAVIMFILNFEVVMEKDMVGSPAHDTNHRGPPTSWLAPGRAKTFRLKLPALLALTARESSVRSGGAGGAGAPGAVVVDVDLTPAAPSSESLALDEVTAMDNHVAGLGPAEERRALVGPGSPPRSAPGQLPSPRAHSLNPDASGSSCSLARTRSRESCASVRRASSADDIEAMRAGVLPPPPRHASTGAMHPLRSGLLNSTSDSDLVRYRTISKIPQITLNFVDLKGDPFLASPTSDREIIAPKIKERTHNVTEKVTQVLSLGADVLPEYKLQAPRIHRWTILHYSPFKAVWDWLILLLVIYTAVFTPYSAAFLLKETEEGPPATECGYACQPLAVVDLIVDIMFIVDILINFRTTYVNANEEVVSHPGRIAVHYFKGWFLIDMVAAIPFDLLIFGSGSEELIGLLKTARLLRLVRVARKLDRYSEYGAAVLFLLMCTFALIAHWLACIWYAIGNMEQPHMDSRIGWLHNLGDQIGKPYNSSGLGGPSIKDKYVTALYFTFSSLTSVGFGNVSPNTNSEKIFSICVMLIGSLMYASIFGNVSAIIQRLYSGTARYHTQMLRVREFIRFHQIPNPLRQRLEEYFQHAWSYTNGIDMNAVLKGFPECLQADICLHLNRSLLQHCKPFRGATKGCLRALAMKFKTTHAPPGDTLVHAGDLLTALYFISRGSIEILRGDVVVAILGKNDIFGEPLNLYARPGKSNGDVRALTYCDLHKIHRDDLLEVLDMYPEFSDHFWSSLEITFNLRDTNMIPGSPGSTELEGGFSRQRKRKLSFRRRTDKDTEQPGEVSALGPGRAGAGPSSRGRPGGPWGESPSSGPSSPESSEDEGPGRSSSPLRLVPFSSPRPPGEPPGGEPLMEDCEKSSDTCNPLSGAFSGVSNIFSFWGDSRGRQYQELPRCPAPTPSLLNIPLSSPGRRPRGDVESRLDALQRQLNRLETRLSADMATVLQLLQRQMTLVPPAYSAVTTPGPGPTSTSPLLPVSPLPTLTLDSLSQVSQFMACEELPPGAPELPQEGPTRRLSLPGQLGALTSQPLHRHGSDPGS
Protocol: (§1) Inhibition experiment of compounds on hERG potassium ion channel
(§2) Cell culture and treatment: CHO cells stably expressing hERG were cultured in cell culture flasks and incubated in a 5% CO2 incubator at 37°C. When a cell density reached 60%-80%, the cell culture medium was aspirated, washed once with PBS, and then digested with Detachin. After digestion, the grown cells were neutralized in the cell culture medium, and then centrifuged, the supernatant was aspirated, the cell culture medium was added again to resuspend the grown cells, and the cell density was adjusted to 2-5×10^6 cells/mL for later use.
(§3) Compound preparation: the compound stock solution was diluted in 100% DMSO, that is, 10 µL compound stock solution was serially diluted in 20 µL DMSO by 3 folds to obtain six concentrations. Six concentrations of the compound (4 µL for each concentration) were diluted in 396 µL extracellular fluid by 100 folds to obtain six intermediate concentrations. Six intermediate concentrations of the compound (80 µL for each concentration) were diluted in 320 µL extracellular fluid by 5 folds to obtain final concentrations to be tested. […] DMSO in a final test concentration was not more than 0.2%, and DMSO at this concentration had no effect on the hERG potassium channel. The entire dilution process for compound preparation was performed using Bravo instrument.
(§4) Electrophysiological recording process: the processes of single-celled high-impedance sealing and whole-cell mode formation were all automatically completed by Qpatch instrument, under the whole-cell recording mode, the cells were clamped at -80 mV, before 5-second + 40 mV depolarization stimulus, the cells were given 50-millisecond - 50 mV pre-voltage, followed by repolarization to -50 mV for 5 seconds, and then returning to -80 mV. The voltage stimulus was given every 15 seconds, after 2 minutes of recording, extracellular fluid was recorded for 5 min, and then a drug was administrated, started from a lowest test concentration, each test concentration of the compound was given for 2.5 minutes, after all concentrations were given consecutively, a positive control compound Cisapride (3 µM) was given. At least 3 cells were tested for each concentration (n≥3).
(§5) Data processing: data analysis and processing were performed using GraphPad Prism 5.0 and Excel software. IC50 values of the compounds were calculated by fitting with the following equation using GraphPad Prism 5 software: Y = Bottom + (Top−Bottom)/(1+10^(∧)((LogIC50−X)*HillSlope)); [formula] where X is the Log value of the test sample concentration, Y is an inhibition percentage at a corresponding concentration, and Bottom and Top are the minimum and maximum inhibition percentages, respectively.

[3] = In vivo brain-to-plasma ratio in mice; settings: for Brain: male mice, oral 10 mg/kg
Protocol: Evaluation of in vivo brain-to-plasma ratio of compound
Experimental purpose: to obtain the brain-to-plasma ratio of the compound
Experimental protocol: the brain-to-plasma ratio of the compound was investigated by monitoring the content of the compound in mouse brain and plasma.
Experimental procedure: the compound was weighed, followed by adding a small amount of DMSO and adding a sodium chloride solution for injection, to prepare a 10 mg · mL^-1 compound solution for administration. Male mice were orally administered at 10 mg · kg^-1, and whole plasma and whole brain tissue were sampled at 1 h and 6 h after administration (n=3). […] A centrifuge tube was weighed as M1, the centrifuge tube containing the whole brain tissue was weighed as M2, the centrifuge tube containing water for homogenization was weighed as M3, and the centrifuge tube after the removal of 30 µL homogenate was weighed as M4.
Standard curve range: 10-10,000 ng·mL^-1. Content of drug in brain = measured value × 0.03 × (M3−M1)/[(M2−M1)×(M3−M4)].

[4] = In vivo distribution of cerebrospinal fluid and plasma; settings: male, mouse, iv, 5 mg/kg
Protocol: Evaluation of in vivo distribution of cerebrospinal fluid and plasma after compound administration
Experimental procedure: the compound was weighed, followed by adding a small amount of DMSO and then adding a sodium chloride solution for injection, to prepare a 5 mg·mL^-1 compound solution for administration. […] Standard curve range: 1-1000 ng·mL^-1.

[5] = molecular target: T2, hERG potassium ion channel; test: Inhibition of hERG potassium ion channel (CHO cells stably expressing hERG, Qpatch)
Protocol: as §1, §2, §3, §4, §5

[6] = male, mouse, brain/plasma, po, 10 mg/kg
[7] = male, mouse, plasma, po, 10 mg/kg

Work on `CN1C[C@H](F)C[C@@H](Nc2nnc(-c3ccc4sccc4c3O)n(C)c2=O)C1` [Compound 40] yielded an IC50 (NLRP3 inflammasome) of 2.97 nM, an AUC(0-t) [1] of 40400 ng·h/mL and a Cmax [1] of 15000 ng/mL. The half-life [1] was 2.86 h, the “72h Survival rate” value (LPS-induced mice; 25 mg/kg oral, 1 h before 10 mg/kg LPS i.p.) was 90% and the “survival status of mice (mice alive) 12h” value (LPS-induced mice; First cage (5 mice)) was 5. The “survival status of mice (mice alive) 24h” value (LPS-induced mice; First cage (5 mice)) was 5, the “survival status of mice (mice alive) 36h” value (LPS-induced mice; First cage (5 mice)) was 5 and the “survival status of mice (mice alive) 48h” value (LPS-induced mice; First cage (5 mice)) was 5. The “survival status of mice (mice alive) 72h” value (LPS-induced mice; First cage (5 mice)) was 5, the “survival status of mice (mice alive) 12h” value (LPS-induced mice; Second cage (5 mice)) was 5 and the “survival status of mice (mice alive) 24h” value (LPS-induced mice; Second cage (5 mice)) was 5. The “survival status of mice (mice alive) 36h” value (LPS-induced mice; Second cage (5 mice)) was 5, the “survival status of mice (mice alive) 48h” value (LPS-induced mice; Second cage (5 mice)) was 4 and the “survival status of mice (mice alive) 72h” value (LPS-induced mice; Second cage (5 mice)) was 4. The Kd (human NLRP3 protein) was 62.1 nM, the “inhibitory effects on the hERG potassium ion channel (conclusion in words)” value [2] was “Conclusion: compounds 3, 4, 5, 9, 16, 17, 24, 30, 40, 41, 42, 43, 54 and others have weak inhibitory effects on the hERG potassium ion channel, having weaker inhibitory effect than the reference compound Ref-1” and the Brain ([3]; 1 h) was 1350 ng/g. The Brain ([3]; 6 h) was 199 ng/g, the Kp at 1 h [3, 6] was 0.19 and the Kp at 6 h [3, 6] was 0.14. For the same molecule, the concentration at 1 h [3, 7] was 7240 ng/mL, the concentration at 6 h [3, 7] was 1460 ng/mL and the concentration at 0.25 h ([4]; cerebrospinal fluid) was 191 ng/g. For the same molecule, the concentration at 2 h ([4]; cerebrospinal fluid) was 0.51 ng/g, the concentration at 0.25 h ([4]; plasma) was 5030 ng/mL and the concentration at 2 h ([4]; plasma) was 826 ng/mL. For the same molecule, the “20 uM Inhibition ratio” value [5] was 3.48%.
